Common to all, as to assay: NCI tumour cell line growth inhibition, 48 h
Assay [1] relates to SF-268 CNS.
Assay [2] relates to SN12C renal.
Assay [3] relates to SNB-75 CNS.
Assay [4] has as its system HCT-15 colon.
The subject of assay [5] is OVCAR-4 ovarian.
Assay [6] deals with SK-MEL-5 melanoma.
The subject of assay [7] is MOLT-4 leukemia.
Assay [8] has as its system M14 melanoma.
The subject of assay [9] is UACC-257 melanoma.
The test system of assay [10] is HT29 colon.

The source of these data is PubChem BioAssay (NCI).

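These data come from cells grown in 96-well plates and exposed to compound for 48 hours at five concentrations. Here, GI50 denotes the concentration required for 50% inhibition of growth. The concentration for full growth arrest is given as TGI.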

With `CN(C)C(=S)Sc1ccc([N+](=O)[O-])cc1[N+](=O)[O-]`, the GI50 is 3.32 µM in assay [1]; 3.24 µM in assay [2]; 7.53 µM in assay [3]; 1.46 µM in [4]; 1.61 µM in assay [5]; 1.73 µM in [6]. For the same molecule, the GI50 was 2.04 µM in assay [7], 2.5 µM in [8], 1.75 µM in [9] and 0.325 µM in [10]. Also, the TGI in assay [1] was 15.4 µM; in assay [2], 11.2 µM; in [3] it was 20.5 µM; in assay [4] it was 4.2 µM; in assay [5], 13.9 µM; in [6], 5.82 µM. For the same molecule, the TGI was above 42 µM in assay [7], 9.46 µM in assay [8], 4.9 µM in assay [9] and 1.67 µM in [10].

On to `CCc1ccc(/C=C/c2ccc(O)c3ncccc23)[n+](C)c1`, for which the GI50 in [1] was 0.749 µM; in assay [2], 0.457 µM; in [3], above 100 µM; in assay [4] it was 40.9 µM; in assay [5] it was 5.6 µM; in assay [6], 3.55 µM. Also, the GI50 in assay [7] was 3.72 µM; in [9] it was 16.9 µM; in assay [10], above 29.3 µM. Further, the TGI in [1], in assay [2], in assay [3], in assay [4], in assay [5] and in [6] was above 100 µM throughout. Besides, the TGI in assay [7], in assay [8], in assay [9] and in assay [10] was above 100 µM in each case.

For the molecule `C[Si](C)(C)/C(I)=C/CO`, the TGI was 94.1 µM in assay [1]; 64.7 µM in assay [2]; above 100 µM in assay [3]; 72.1 µM in assay [4]; above 100 µM in [5]; 34.6 µM in assay [6]. The TGI in assay [7] was 35.3 µM; in assay [8], above 100 µM; in assay [9], 45.2 µM; in assay [10], 44.5 µM.

With `Nc1c(C(=O)c2ccccc2)cnn1-c1ccc(F)cc1`, the GI50 in assay [1], in assay [2], in assay [3], in assay [4], in assay [5] and in [6] was above 25 µM each time. The GI50 in assay [7], in [8], in [9] and in [10] was above 25 µM in each case. For the same molecule, the TGI in assay [1], in assay [2], in assay [3], in assay [4], in assay [5] and in [6] was above 25 µM throughout. For the same molecule, the TGI in [7], in assay [8], in [9] and in assay [10] was above 25 µM throughout.

For the molecule `C=CCN1CCC23c4c5ccc(O)c4OC2C(=NN=C2CCC4(O)C6Cc7ccc(O)c8c7C4(CCN6CC=C)C2O8)CCC3(O)C1C5` (centres undefined), the TGI is above 100 µM in assay [1]; 47.8 µM in assay [2]; 34.2 µM in [3]; above 100 µM in assay [4]; 40.8 µM in assay [5]; 36.3 µM in assay [6]. In addition, the TGI in [7] was above 100 µM; in [8], 32 µM; in assay [9] it was 53.2 µM; in assay [10], 37.6 µM.

With `CC(C)=CCc1cc(O)cc2c1OC(C=C(C)C)C1=C2C(=O)C2=C(C1=O)S(=O)(=O)CCN2` (centres undefined), the GI50 was 2.91 µM in assay [1]; 2.7 µM in assay [2]; 2.6 µM in assay [3]; 5.8 µM in assay [4]; 2.77 µM in [5]; 2.75 µM in assay [6]. For the same molecule, the GI50 in assay [7] is 3.4 µM; in [8], 2.92 µM; in [9], 2.56 µM; in assay [10], 6.61 µM. For the same molecule, the TGI in assay [1] is 8.37 µM; in assay [2] it was 5.45 µM; in [3] it was 6.39 µM; in assay [4] it was above 16.7 µM; in assay [5], 6.72 µM; in assay [6], 5.05 µM. For the same molecule, the TGI in assay [7] was 8.99 µM; in assay [8], 5.59 µM; in assay [9] it was 4.97 µM; in [10], above 16.7 µM.

For the molecule `Cc1ccc2c(C3C(C#N)=C(N)Oc4cc5ccccc5cc43)cc(=O)oc2c1` (centres undefined), the GI50 in [1] was 3.07 µM; in assay [2], 5.27 µM; in assay [3] it was 6.89 µM; in [4] it was 0.64 µM; in assay [5] it was 11.4 µM; in assay [6], 0.856 µM. The GI50 in assay [7] was 2.05 µM; in assay [8], 0.697 µM; in assay [9] it was 24.5 µM; in [10] it was 3 µM. Besides, the TGI in assay [1] is above 100 µM; in [2], above 100 µM; in assay [3], above 100 µM; in [4], above 100 µM; in [5], above 100 µM; in assay [6] it was 19.9 µM. For the same molecule, the TGI in assay [7] is above 100 µM; in [8], 21.3 µM; in assay [9], above 100 µM; in [10] it was 13.1 µM.

Regarding `Cc1nc2cc(Nc3nc(Nc4ccc(F)cc4)nc(-c4cccs4)n3)ccc2n1Cc1ccccc1`, the GI50 was 9.74 µM in assay [1]; 5.73 µM in assay [2]; 2.94 µM in assay [3]; 3.11 µM in [4]; 3.24 µM in assay [5]; 4.18 µM in assay [6]. Moreover, the GI50 in assay [7] is 2.97 µM; in [8] it was 5.42 µM; in assay [9] it was 5.42 µM; in [10], 2.12 µM. Also, the TGI is above 100 µM in [1]; 58.1 µM in assay [2]; above 100 µM in assay [3]; 16.3 µM in [4]; 34.8 µM in assay [5]; 17.3 µM in assay [6]. Further, the TGI in [7] amounted to 9.3 µM; in assay [8], 24.6 µM; in assay [9] it was 30.1 µM; in assay [10] it was 4.44 µM.
